# Assays:
# [1] = system: NA reuptake in rat brain synaptosomes; assay: 3H-NA reuptake by rat brain synaptosomes; format: biochemical; settings: 3H-NA 10 nM, rat brain synaptosomes; read-out: NA inhibition rate % IC50
# Text: (§1) At present, it is believed that absolute or relative deficiencies of the central monoamine neurotransmitters 5-hydroxytryptamine (5-HT), norepinephrine (NA) and dopamine (DA) are closely related to depression and anxiety.
# Synaptosomes were separated using methods in literature to prepare brain synaptosomes. SD rats were rapidly decapitated with a small animal decapitator. After decapitation, brains were taken out quickly and precooled in an ice-water mixture, and the pia mater and vascular tissue were removed. Brain tissue was taken out. 10 times volume (ml/g) of 10 mM Tris HCl buffer (containing 0.32 M sucrose, pH 7.4) was added, an ultrasonic cell pulverizer was used for homogenization (maintaining at a low temperature), and the brain tissue was homogenized and centrifuged for 10 min (4° C., 1,000 g). After balanced centrifugation (1500 g, 10 min) at 4° C., precipitate was discarded, then supernatant was taken, and centrifugation (20000 g) was performed again for 30 min. The supernatant was discarded and the precipitate, i.e. crude extract of synaptic corpuscles, was retained. The precipitate was further suspended in 0.32 M cold sucrose solution and then carefully laid on 1.2 M and 0.8 M (10 ml each) cold sucrose gradient solutions which had been laid sequentially on the bottom of the tube, followed by balanced centrifugation (38000 g) at 4 °C for 60 min. A suspension band at the 0.8-1.2 M sucrose interface was carefully collected with a puncture needle, which was placed in 10 ml of 0.32 M cold sucrose solution and mixed well, and equilibrium centrifuged (20000 g) at 4 °C for 30 min. The precipitate was refined brain synaptosomes. […]
# (§2) The percentage inhibition of isotope ligand binding by each compound was calculated according to the following equation: […]
# [2] = system: 5-HT reuptake in rat brain synaptosomes; assay: 3H-5-HT reuptake by rat brain synaptosomes; format: biochemical; settings: 3H-5HT 10 nM, read-out: 5-HT inhibition rate % IC50
# Text: as §1
# Synaptosomes were separated using methods in literature to prepare brain synaptosomes. SD rats were rapidly decapitated with a small animal decapitator. After decapitation, brains were taken out quickly and precooled in an ice-water mixture, and the pia mater and vascular tissue were removed. Brain tissue was taken out. 10 times volume (ml/g) of 10 mM Tris HCl buffer (containing 0.32 M sucrose, pH 7.4) was added, an ultrasonic cell pulverizer was used for homogenization (maintaining at a low temperature), and the brain tissue was homogenized and centrifuged for 10 min (4° C., 1,000 g). After balanced centrifugation (1500 g, 10 min) at 4° C., precipitate was discarded, then supernatant was taken, and centrifugation (20000 g) was performed again for 30 min. The supernatant was discarded and the precipitate, i.e. crude extract of synaptic corpuscles, was retained. […]
# as §2
# [3] = system: ICR mice; assay: Elevated plus maze experiment in mice, single administration; format: in vivo; settings: for OE % / OT %: 30 min after single administration; for anxiolytic activity in elevated plus maze vs solvent control group: comparative study, single intragastric administration of 20 mg/kg
# Protocol: 50 male ICR mice were randomly divided into 5 groups (a solvent control group, estazolam group, M2 high dosage group, M2 medium dosage group, M2 low dosage group), with 10 mice in each group. The compound M2 high, medium and low dosage groups were intragastrically administered at 20 mg/kg. 10 mg/kg and 5 mg/kg, respectively; the positive drug estazolam was intragastrically administered at 2.5 mg/kg; and the solvent control group was gavaged with an equal volume of solvent. Behavior test was performed in each group 30 min after single administration. The experiments were required to be conducted between 8:00 am and […], and all animals entered the test laboratory on the previous day.
# The laboratory was dimly lit (with the lowest brightness that can distinguish the subtle activities of mice at a distance of 1.5 m) and the brightness was kept constant, with a room temperature of about 20° C., and kept quiet. Before the maze test, each mouse was placed in a 35 cm*10 cm*5 cm plastic box and left to explore freely for 5 min and then quickly placed at the central platform of an elevated plus maze, with its head facing one of the open arms, and the following indexes were recorded upon release. Each mouse was tested for 5 min. Observers observed and recorded animal activities at a distance of 1.5 m. At intervals, the maze was wiped with a wet cloth to remove feces, and then wiped with a dry cloth before a next mouse was tested.
# • (1) The number of open arm entries (OE): the number of entries into any open arm, based on the fact that all four claws of the mouse entered the arm, and a complete exit of one claw from the arm indicated the completion of the entry activity; • (2) open arm time (OT): the time of entering an open arm, with the unit of seconds; • (3) the number of close arm entries (CE): the number of entries into any close arm, based on the fact that all four claws of the mouse entered the arm; • (4) close arm time (CT): the time of entering a close arm, with the unit of seconds; • (5) percentage of open arm time: OT %=OT/(OT+CT)*100%; and • (6) percentage of open arm entries: OE %=OE/(OE+CE)*100%.
# 70 male ICR mice were randomly divided into 7 groups (a solvent control group, estazolam group, compound M2 group, compound II-3 group, compound II-4 group, compound II-5 group, and compound II-10 group), with 10 mice in each group. The dosage of M2 and its four structurally similar compounds was determined as 20 mg/kg according to the experimental results of 3.1: the positive drug estazolam was administered intragastrically at 2.5 mg/kg; and the solvent control group was gavaged with an equal volume of solvent. Behavior test was performed in each group 30 min after single administration. The experiments were required to be conducted between 8:00 am and […], and all animals entered the test laboratory on the previous day.
# The behavioral test method and behavioral observation indexes were the same as those in 3.1.
# Data was expressed as mean±standard (mean±SD) difference, and statistics of data differences were made by one-way analysis of variance (ANOVA) or nonparametric test, and differences between groups were determined by P<0.05.
# [4] = comparative study (Table 13), 20 mg/kg i.g.
# [5] = dosage exploration study (Table 12), 5 mg/kg i.g.
# [6] = dosage exploration study (Table 12), 10 mg/kg i.g.
# [7] = dosage exploration study (Table 12), 20 mg/kg i.g.
IC50 [1] [nM],IC50 [2] [nM],SMILES,"OE % [3, 4] [%]","OT % [3, 4] [%]",anxiolytic activity in elevated plus maze vs solvent control group [3],"OE % [3, 5] [%]","OT % [3, 5] [%]","OE % [3, 6] [%]","OT % [3, 6] [%]","OE % [3, 7] [%]","OT % [3, 7] [%]","effective dosage for single administration (anxiolytic) ([3]; mice, elevated plus maze) [mg/kg]"
17.2 ± 1.59,18.5 ± 2.47,CC(C)CNC(=O)/C=C/c1cc2c(c(C(F)(F)F)c1)OCO2 [Compound I-5],47.01 ± 6.30,46.70 ± 9.98,significant anxiolytic activity,–,–,–,–,–,–,–
23.5 ± 3.56,98.9 ± 2.42,NC(=O)/C=C/c1cc2c(c(C(F)(F)F)c1)OCO2 [Compound M2],57.94 ± 11.72,57.36 ± 8.77,significant anxiolytic activity,35.46 ± 10.13,38.52 ± 12.19,36.13 ± 14.12,35.92 ± 13.11,38.47 ± 7.13,44.60 ± 9.33,20

# Source: patent US20240217946A1, “ANTIDEPRESSANT AND ANXIOLYTIC SUBSTITUTED CINNAMAMIDE COMPOUND” (TASLY PHARMACEUTICAL GROUP CO., LTD., priority 2021, published 2024)
